Read-outs that look alike come from different tables or passages of the source.
Columns and labels:
PDGFRβ = PDGFRβ (Rattus norvegicus (Rat), UniProt Q05030); assay: PDGFRβ Cellular Assay (PDGFRb P-Y751 HTRF in A10 cells stimulated with PDGF-BB); assay type: cell-based
Description: II. Methods and Procedures
Cell Culture and Preparation: Cells are cultured according to ATCC procedure (5) with the addition of the antibiotic penicillin-streptomycin. If working from frozen, cells should be thawed according to ATCC procedure. Depending on the cell density of frozen vial, cells will need time to recover from thaw. An 80% confluent T75 flask should be enough for one 384 well plate.
Stock Solutions: Rat PDGFBB. A 100 ug/mL stock is prepared by reconstituting 50 ug in 500 uL of 4 mM HCl and 0.1% BSA. It can be stored for a month at 4° C., or aliquoted out and frozen in the −20/−80° C. to avoid multiple free-thaw cycles.
Freshly Prepared Solutions:
1× Cisbio cell lysis buffer. The cell lysis buffer is diluted 4-fold with molecular grade water. The blocking agent is then diluted 25-fold in the diluted lysis buffer.
Antibody solutions. Equal amounts d2 and cryptate antibody are diluted 20-fold in detection buffer.
Rat PDGFBB. A working stock of 100 ng/mL is created from the stock solution in 10% FBS culture media.
Step 1: Plating Cells: Media from the A10 cell flask is aspirated. The cells are rinsed with PBS and then trypsinized to disperse the cell layer. The cells are then pelleted are resuspended to 1.25e5 cells/mL. […] Plates are covered and placed in the incubator (37° C. 5% CO2) overnight to allow cells to adhere.
Step 2: Compound Dispense: Approximately 18 hours after plating, dispense 40 nL compound onto cells using Echo. Column 12 is the neutral control DMSO, column 24 is the inhibitor control 10 mM Imatinib (10 uM final assay concentration). The plate is returned to the incubator for 3 hours.
After 10 minutes the media is removed by flicking the plate.
Step 4: Cell lysis and antibody addition: 20 uL lysis buffer per well is added to the plate via Tempest. 5 uL antibody solution is added per well via the Tempest. The plate is placed on the shaker at 230 rpm for 1 hour at room temperature.
Step 5: Detection: The plate is read using the HTRF module on the BMG Pherastar. Data is analyzed using Genedata Screener.
III. Calculations and Formulas
% Inhibition: % Inhibition=(NC−sample)/(NC−PC)*100 where NC is the mean of negative control (reactions without inhibitor), and PC is the mean of positive control (10 μM imatinib).
IC50 values are determined from a 4-parameter fit, using the following equation: Y=Bottom+(Top−Bottom)/(1+10((Log IC50−X)*Hill slope)), where X=log10 of the compound concentration; top can be defined by PC; bottom defined by NC.

[1] = molecular target: His6-TEV-PDGFRβ (557-1016) (Homo sapiens (Human), UniProt P09619); assay: PDGFRβ HTRF Assay; assay type: biochemical; settings: read-out: PDGFR HTRF IC50
His6-TEV-PDGFRβ (557-1016), sequence (P09619 557-1016): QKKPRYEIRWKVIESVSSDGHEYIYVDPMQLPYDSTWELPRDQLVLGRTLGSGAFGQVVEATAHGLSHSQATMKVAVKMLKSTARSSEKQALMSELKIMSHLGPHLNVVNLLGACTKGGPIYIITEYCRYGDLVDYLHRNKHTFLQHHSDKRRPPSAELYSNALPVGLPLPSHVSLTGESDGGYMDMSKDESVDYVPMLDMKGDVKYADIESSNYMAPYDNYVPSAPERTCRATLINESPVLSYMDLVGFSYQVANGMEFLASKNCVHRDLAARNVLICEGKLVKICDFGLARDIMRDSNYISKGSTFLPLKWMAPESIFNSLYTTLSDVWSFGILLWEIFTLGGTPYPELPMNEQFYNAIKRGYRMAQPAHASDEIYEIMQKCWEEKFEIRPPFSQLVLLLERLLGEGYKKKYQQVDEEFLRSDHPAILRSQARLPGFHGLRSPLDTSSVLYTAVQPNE
Method in brief: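 HTRF KinEASE-TK readout (665/620 nm ratio) of TK-biotin substrate phosphorylation by His-tagged PDGFRβ kinase domain. Enzyme and inhibitor preincubated 30 min, then ATP/substrate added for 3 h at room temperature before 60 min EDTA quench/detection.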

PDGFRβ, sequence (Q05030 32-1097): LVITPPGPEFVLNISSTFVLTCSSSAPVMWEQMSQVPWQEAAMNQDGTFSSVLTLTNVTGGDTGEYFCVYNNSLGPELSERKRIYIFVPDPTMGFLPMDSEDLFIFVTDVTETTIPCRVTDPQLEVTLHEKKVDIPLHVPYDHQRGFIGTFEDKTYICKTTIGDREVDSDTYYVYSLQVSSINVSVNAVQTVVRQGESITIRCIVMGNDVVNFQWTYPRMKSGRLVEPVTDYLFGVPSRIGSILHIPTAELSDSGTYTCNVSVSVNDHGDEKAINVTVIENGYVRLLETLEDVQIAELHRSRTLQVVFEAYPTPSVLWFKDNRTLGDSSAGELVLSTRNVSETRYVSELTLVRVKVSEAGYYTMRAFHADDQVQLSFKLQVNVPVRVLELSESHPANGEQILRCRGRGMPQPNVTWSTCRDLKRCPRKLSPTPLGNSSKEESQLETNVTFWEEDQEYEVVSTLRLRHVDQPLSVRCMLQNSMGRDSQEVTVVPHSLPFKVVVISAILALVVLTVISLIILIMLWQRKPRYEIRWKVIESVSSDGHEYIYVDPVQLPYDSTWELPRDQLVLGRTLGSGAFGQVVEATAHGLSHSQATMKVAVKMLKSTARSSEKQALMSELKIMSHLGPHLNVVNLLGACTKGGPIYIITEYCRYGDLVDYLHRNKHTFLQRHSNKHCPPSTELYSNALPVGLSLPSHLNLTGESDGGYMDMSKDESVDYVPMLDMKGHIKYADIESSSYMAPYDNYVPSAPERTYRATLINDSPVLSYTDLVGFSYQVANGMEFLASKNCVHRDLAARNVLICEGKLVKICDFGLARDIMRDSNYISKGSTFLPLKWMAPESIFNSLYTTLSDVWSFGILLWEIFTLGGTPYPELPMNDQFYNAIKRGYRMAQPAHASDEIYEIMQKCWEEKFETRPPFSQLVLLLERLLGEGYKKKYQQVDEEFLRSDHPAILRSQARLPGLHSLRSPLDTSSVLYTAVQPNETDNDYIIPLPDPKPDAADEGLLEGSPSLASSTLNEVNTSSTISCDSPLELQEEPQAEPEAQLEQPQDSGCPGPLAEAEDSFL

SMILES | IC50 (PDGFRβ; read-out: PDGFR Cellular IC50) | IC50 [1] | IC50 (PDGFRβ; PDGFR Cellular IC50)
Cc1ncc(NC(=O)CCCN2CCC[C@@H]2C)cc1NC(=O)c1cnn2cc(-c3cnn(C)c3)sc12 [Example 106, (S)-2-(1-methyl-1H-pyrazol-4-yl)-N-(2-methyl-5-(4-(2-methylpyrrolidin-1-yl)butanamido)pyridin-3-yl)pyrazolo[5,1-b]thiazole-7-carboxamide] | 461 nM | 1.3 nM | 
Cc1ncc(C(=O)NCCN2CC3CCC2CC3)cc1NC(=O)c1cnn2cc(-c3ccncc3)sc12 [Example 148, N-(5-((2-(2-azabicyclo[2.2.2]octan-2-yl)ethyl)carbamoyl)-2-methylpyridin-3-yl)-2-(pyridin-4-yl)pyrazolo[5,1-b]thiazole-7-carboxamide] | 28.9 nM | 0.3 nM | 
Cc1ncc(C(=O)NCCN2CC3CCC2CC3)cc1NC(=O)c1cnn2cc(-c3cccnc3)sc12 [Example 149, N-(5-((2-(2-azabicyclo[2.2.2]octan-2-yl)ethyl)carbamoyl)-2-methylpyridin-3-yl)-2-(pyridin-3-yl)pyrazolo[5,1-b]thiazole-7-carboxamide] | 36.2 nM | 0.3 nM | 
COCCN(CCNC(=O)c1cnc(C)c(NC(=O)c2cnn3cc(-c4cnn(C)c4)sc23)c1)C(C)C [Example 127, N-(5-((2-(isopropyl(2-methoxyethyl)amino)ethyl)carbamoyl)-2-methylpyridin-3-yl)-2-(1-methyl-1H-pyrazol-4-yl)pyrazolo[5,1-b]thiazole-7-carboxamide] |  | 0.6 nM | 16.2 nM
Cc1ncc(C(=O)NCCN2CC(C)(C)C2)cc1NC(=O)c1cnn2cc(-c3cn(C)cn3)sc12 [Example 161] | 123 nM | 0.5 nM | 
Cc1ncc(C(=O)NCCN2CCC3(CC3)C2)cc1NC(=O)c1cnn2cc(-c3ccccn3)sc12 [Example 160, N-(5-((2-(5-azaspiro[2.4]heptan-5-yl)ethyl)carbamoyl)-2-methylpyridin-3-yl)-2-(pyridin-2-yl)pyrazolo[5,1-b]thiazole-7-carboxamide] | 25.3 nM | 0.2 nM | 
Cc1ncc(NC(=O)CCN2CCCC2(C)C)cc1NC(=O)c1cnn2cc(-c3cnn(C)c3)sc12 [Example 10, N-(5-(3-(2,2-dimethylpyrrolidin-1-yl)propanamido)-2-methyl-pyridin-3-yl)-2-(1-methyl-1H-pyrazol-4-yl)pyrazolo[5,1-b]thiazole-7-carboxamide] | 5.2 nM | 0.3 nM | 
Cc1ncc(C(=O)NCCN2CC3CCC2CC3)cc1NC(=O)c1cnn2cc(-c3cn(C)nc3C)sc12 [Example 178, N-(5-((2-(2-azabicyclo[2.2.2]octan-2-yl)ethyl)carbamoyl)-2-methylpyridin-3-yl)-2-(1,3-dimethyl-1H-pyrazol-4-yl)pyrazolo[5,1-b]thiazole-7-carboxamide] | 18.7 nM | 0.2 nM | 
Cc1ncc(C(=O)NCCN2CC3CCC2CC3)cc1NC(=O)c1cnn2cc(-c3cnn(CC(N)=O)c3)sc12 [Example 150, N-(5-((2-(2-azabicyclo[2.2.2]octan-2-yl)ethyl)carbamoyl)-2-methylpyridin-3-yl)-2-(1-(2-amino-2-oxoethyl)-1H-pyrazol-4-yl)pyrazolo[5,1-b]thiazole-7-carboxamide] | > 2000 nM | 0.6 nM | 
Cc1ncc(C(=O)NCCN2CCC23CCC3)cc1NC(=O)c1cnn2cc(-c3cn(C)nc3C)sc12 [Example 175, N-(5-((2-(1-azaspiro[3.3]heptan-1-yl)ethyl)carbamoyl)-2-methylpyridin-3-yl)-2-(1,3-dimethyl-1H-pyrazol-4-yl)pyrazolo[5,1-b]thiazole-7-carboxamide] | 16.6 nM | 0.5 nM | 
Cc1ncc(C(=O)NCCN2CCCC2(C)C)cc1NC(=O)c1cnn2cc(-c3cnn(C4CC4)c3)sc12 [Example 6, 2-(1-cyclopropyl-1H-pyrazol-4-yl)-N-(5-((2-(2,2-dimethylpyrrolidin-1-yl)ethyl)carbamoyl)-2-methylpyridin-3-yl)pyrazolo[5,1-b]thiazole-7-carboxamide] | 7.7 nM | 0.2 nM | 
Cc1ncc(C(=O)NCCN2CCC3(CC3)C2)cc1NC(=O)c1cnn2cc(-c3cnn(C)c3)sc12 [Example 118, N-(5-((2-(5-azaspiro[2.4]heptan-5-yl)ethyl)carbamoyl)-2-methylpyridin-3-yl)-2-(1-methyl-1H-pyrazol-4-yl)pyrazolo[5,1-b]thiazole-7-carboxamide] | 55.5 nM | 0.3 nM | 
Cc1ncc(C(=O)NCCN2CCC(F)(F)CC2)cc1NC(=O)c1cnn2cc(-c3cccnc3)sc12 [Example 157, N-(5-((2-(4,4-difluoropiperidin-1-yl)ethyl)carbamoyl)-2-methylpyridin-3-yl)-2-(pyridin-3-yl)pyrazolo[5,1-b]thiazole-7-carboxamide] | 21.2 nM | 0.6 nM | 
Cc1ncc(C(=O)NCCN2CC(C)(C)C2)cc1NC(=O)c1cnn2cc(-c3ccncc3)sc12 [Example 155, N-(5-((2-(3,3-dimethylazetidin-1-yl)ethyl)carbamoyl)-2-methylpyridin-3-yl)-2-(pyridin-4-yl)pyrazolo[5,1-b]thiazole-7-carboxamide] | 153 nM | 1 nM | 
CC(=O)Nc1ccnc(-c2cn3ncc(C(=O)Nc4cc(C(=O)NCCN5CC6CCC5CC6)cnc4C)c3s2)c1 [Example 146, N-(5-((2-(2-azabicyclo[2.2.2]octan-2-yl)ethyl)carbamoyl)-2-methylpyridin-3-yl)-2-(4-acetamidopyridin-2-yl)pyrazolo[5,1-b]thiazole-7-carboxamide] | 858 nM | 0.6 nM | 
COCCn1cc(-c2cn3ncc(C(=O)Nc4cc(C(=O)NCCN5CC(C)(C)C5)cnc4C)c3s2)cn1 [Example 166, N-(5-((2-(3,3-dimethylazetidin-1-yl)ethyl)carbamoyl)-2-methylpyridin-3-yl)-2-(1-(2-methoxyethyl)-1H-pyrazol-4-yl)pyrazolo[5,1-b]thiazole-7-carboxamide] | 233 nM | 0.7 nM | 
Cc1ncc(C(=O)NCCN2CCCC2(C)C)cc1NC(=O)c1cnn2cc(-c3cncnc3)sc12 [Example 139, N-(5-((2-(2,2-dimethylpyrrolidin-1-yl)ethyl)carbamoyl)-2-methylpyridin-3-yl)-2-(pyrimidin-5-yl)pyrazolo[5,1-b]thiazole-7-carboxamide] | 164 nM | 5.3 nM | 
Cc1ncc(C(=O)NCCN2CCCC2(C)C)cc1NC(=O)c1cnn2cc(-c3cnn(C)c3C)sc12 [Example 173, 2-(1,5-dimethyl-1H-pyrazol-4-yl)-N-(5-((2-(2,2-dimethylpyrrolidin-1-yl)ethyl)carbamoyl)-2-methylpyridin-3-yl)pyrazolo[5,1-b]thiazole-7-carboxamide] | 11.8 nM | 0.3 nM | 
Cc1ncc(C(=O)NCCN2CC3CCC2CC3)cc1NC(=O)c1cnn2cc(-c3ccc4oc(=O)[nH]c4c3)sc12 [Example 145, N-(5-((2-(2-azabicyclo[2.2.2]octan-2-yl)ethyl)carbamoyl)-2-methylpyridin-3-yl)-2-(2-oxo-2,3-dihydrobenzo[d]oxazol-5-yl)pyrazolo[5,1-b]thiazole-7-carboxamide] | 407 nM | 0.2 nM | 
Cc1ncc(C(=O)NCCN2CC(C)(C)C2)cc1NC(=O)c1cnn2cc(-c3cccnc3)sc12 [Example 158, N-(5-((2-(3,3-dimethylazetidin-1-yl)ethyl)carbamoyl)-2-methylpyridin-3-yl)-2-(pyridin-3-yl)pyrazolo[5,1-b]thiazole-7-carboxamide] | 156 nM | 0.9 nM | 
Cc1ncc(C(=O)NCCN2CCC3(CC3)C2)cc1NC(=O)c1cnn2cc(-c3cnn(C)c3C)sc12 [Example 170, N-(5-((2-(5-azaspiro[2.4]heptan-5-yl)ethyl)carbamoyl)-2-methylpyridin-3-yl)-2-(1,5-dimethyl-1H-pyrazol-4-yl)pyrazolo[5,1-b]thiazole-7-carboxamide] | 33.7 nM | 0.3 nM | 
